# Test results reported in US8236509B2, “Method for preparing antibody monolayers which have controlled orientation using peptide hybrid” (Korea Research Institute of Bioscience and Biotechnology, priority 2007, dated 2012).
# “Also recorded” adds a separate entry of the source.
# Tests used:
# goat IgG = experiment: Cy3-labeled antibody binding to glass plate surface-treated with peptide hybrid (fluorescence); settings: fluorescence image
# Method: (§1) The glass plate was treated with a mixed solution of 95% sulfuric acid and 5% hydrogen peroxide (V/V 3:1) at 60° C. for 30 minutes, followed by washing with distilled water and ethanol. The washed glass plate was soaked in 1% APTS, followed by reaction for 4 hours at room temperature to introduce amine group. The amine group introduced glass plate was reacted in 1 M succinic anhydride-DMF solution at 37° C. for 4 hours to generate carboxyl group on the glass plate. The glass plate was washed with distilled water and ethanol and dried using nitrogen gas and then stored in a vacuum drier. The carboxyl group introduced glass plate was treated with a mixed solution of 0.1 M EDC and 0.025 M NHS for 15 minutes to activate its surface. The activated glass plate was washed with distilled water and dried using nitrogen gas. The peptide hybrid for protein immobilization of 1a was dissolved in PBS containing 40% glycerol at the final concentration of 0.5 mg/ml, which was dropped on the glass plate by 1 μl per each drop, followed by reaction for 2 hours. The non-reacted active ester remaining on the glass plate was inactivated by using 1 M of ethanolamine (pH 8.5) and washed with PBS. […]
# [1] = Storage stability of glass plate surface-treated with peptide hybrid; type: physicochemical; settings: several months storage at room temperature
# Method: The glass plate was treated with a mixed solution of 95% sulfuric acid and 5% hydrogen peroxide (V/V 3:1) at 60° C. for 30 minutes, followed by washing with distilled water and ethanol. The washed glass plate was soaked in 1% APTS, followed by reaction for 4 hours at room temperature to introduce amine group. The amine group introduced glass plate was reacted in 1 M succinic anhydride-DMF solution at 37° C. for 4 hours to generate carboxyl group on the glass plate. The glass plate was washed with distilled water and ethanol and dried using nitrogen gas and then stored in a vacuum drier. The carboxyl group introduced glass plate was treated with a mixed solution of 0.1 M EDC and 0.025 M NHS for 15 minutes to activate its surface. The activated glass plate was washed with distilled water and dried using nitrogen gas. The peptide hybrid for protein immobilization of 1a was dissolved in PBS containing 40% glycerol at the final concentration of 0.5 mg/ml, which was dropped on the glass plate by 1 μl per each drop, followed by reaction for 2 hours. The non-reacted active ester remaining on the glass plate was inactivated by using 1 M of ethanolamine (pH 8.5) and washed with PBS.
# The Cy3 labeled antibody solution was dropped on the glass plate surface-treated with the hybrid of 1a by 50 μl per each drop, followed by reaction for one hour at room temperature. […]
# [2] = Stability of peptide-treated chip surface to washing with 20 mM NaOH and reuse; type: physicochemical; settings: CM-5 chip, reused for antigen-antibody binding
# [3] = tested on: HIgG (mixture of HIgG 1-HIgG 3); experiment: Cy3-labeled antibody binding to glass plate surface-treated with peptide hybrid (fluorescence); set-up: species or system human; settings: fluorescence image
# Method: as §1
# [4] = tested on: mouse originated antibodies (mixed composition of MIgGs 1-3); experiment: SPR binding capacity on peptide-hybrid-treated CM-5 Au sensor chip
# Method: (§2) Then, PBS containing 100 μM of the peptide hybrid was spilled thereon at the same speed for 30 minutes. […] The surface area remaining non-reacted with the peptide hybrid was inactivated by using 1 M of ethanolamine solution (pH 8.5).
# goat originated antibody = experiment: as above
# Method: as §2
# rabbit originated IgG [5] = target: T1, rabbit originated IgG (Oryctolagus cuniculus, UniProt P01870); experiment: as above
# T1 construct: purchased Sigma-Aldrich (USA)
# T1 sequence (P01870 whole entry): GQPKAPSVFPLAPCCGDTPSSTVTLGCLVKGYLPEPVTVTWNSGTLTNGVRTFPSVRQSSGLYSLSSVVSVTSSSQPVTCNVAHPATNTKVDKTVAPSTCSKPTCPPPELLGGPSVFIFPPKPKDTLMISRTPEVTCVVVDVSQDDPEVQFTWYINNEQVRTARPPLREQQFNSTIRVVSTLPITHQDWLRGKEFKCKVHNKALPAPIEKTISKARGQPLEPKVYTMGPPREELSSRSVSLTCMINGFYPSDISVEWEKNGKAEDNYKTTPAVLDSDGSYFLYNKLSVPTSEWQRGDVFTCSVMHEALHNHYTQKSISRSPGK
# Method: as §2
# [6] = tested on: human originated IgG (HIgGs 1-3); experiment: as above
# Method: as §2
# BSA = BSA (Bos taurus, UniProt P02769); experiment: SPR binding capacity on peptide-hybrid-treated CM-5 Au sensor chip (control protein)
# Method: as §2
# HIgG1 [7] = experiment: SPR binding capacity, antibody isotypes; set-up: species or system human; settings: CM-5 Au sensor chip
# Method: as §2
# HIgG3 = experiment: SPR binding capacity, antibody isotypes; set-up: species or system human; settings: CM-5 Au sensor chip
# Method: as §2
# HIgG2 = experiment: SPR binding capacity, antibody isotypes; set-up: species or system human; settings: CM-5 Au sensor chip
# Method: as §2
# CRP = settings: SPR, CRP 5 μg/ml, anti-CRP antibody immobilized via the hybrid
# Method: Then, PBS containing CRP at the same concentration as the above was spilled thereon, followed by measuring the antigen-antibody binding by surface plasmon resonance (SPR) using Biacore 3000. The surface of the chip was recovered by 20 mM NaOH solution for the repeat of the experiment to measure the antigen-antibody binding.
# A buffer containing 0.2 M EDC and 0.05 M NHS was spilled on the dextran CM-5 Au sensor chip (BIacore AB, Sweden) at the speed of 7 μl/minute to activate carboxyl group on the surface of the sensor chip. Then, PBS containing 5 μg/ml of anti-CRP antibody was spilled thereon for 30 minutes at the same speed. The antibody was bound via the reaction of the terminal amine group with the carboxyl group on the sensor chip activated as NHS ester form. The surface not reacted with the antibody was inactivated by using 1 M ethanolamine solution (pH 8.5).
# PBS containing 5 μg/ml of CRP was spilled on the anti-CRP antibody chip with the chemical immobilization and the anti-CRP antibody chip with the immobilization by the peptide hybrid of 1a respectively at the speed of 10 μl/minute, followed by measuring the degree of antigen-antibody binding by surface plasmon resonance using Biacore 3000.
# rabbit IgG [8] = target: T2, rabbit IgG (Oryctolagus cuniculus, UniProt P01870); experiment: biochemical
# T2 sequence (P01870 whole entry): as above
# MIgG1 = target: T3, MIgG1 (Mus musculus, UniProt P01868); experiment: SPR binding capacity, antibody isotypes; settings: CM-5 Au sensor chip
# T3 construct: purchased Sigma-Aldrich (USA)
# Method: as §2
# [9] = tested on: MIgG (mixture of MIgG 1-MIgG 3); experiment: Cy3-labeled antibody binding to glass plate surface-treated with peptide hybrid (fluorescence); set-up: species or system mouse; settings: fluorescence image
# Method: as §1
# mouse originated IgG = experiment: Antibody binding to magnetic micro beads surface-treated with peptide hybrid (PAGE); settings: antibody 0.1 mg/ml, bead 2 mg/ml
# Method: (§3) The surface of the magnetic micro bead containing a carboxyl group was activated by loading 25 mM of MES (pH 6) containing NHS (0.4 M) and EDC (0.2 M). Only magnetic micro bead was recovered by using a magnet and the activated magnetic micro bead was reacted with 0.2 mg/ml of the peptide hybrid of 1a at room temperature for one hour. The activated magnetic micro bead was reacted with PBS alone for the control group. Non-reacted active ester group was inactivated by using 1 M of ethanolamine (pH 8.5). Both the magnetic micro bead with the peptide hybrid of 1a attached and the magnetic micro bead without the peptide hybrid of 1a were repeatedly washed by PBS and diluted in PBS (final concentration: 5 mg/ml).
# (§4) To confirm the binding of the magnetic micro bead adhered with the peptide hybrid of 1a to the antibody, 2 mg/ml (final concentration) of the magnetic micro bead and 0.1 mg/ml of the antibody used in Example <3-2> were mixed to induce binding reaction. After inducing reaction for one hour at room temperature, the magnetic micro bead was dragged down to the bottom of the vessel by using a magnet and the supernatant was eliminated. This process was repeated five times to remove the non-reacted antibodies. The magnetic micro bead reacted with the antibody was added in PAGE loading buffer containing a reducing agent (2-mercaptoethanol), which was heated to separate the antibody chain from the magnetic micro bead, followed by PAGE.
# (§5) The antibody bound to the magnetic micro bead was quantified by using 12% polyacrylamide gel containing 10% SDS. Particularly, 20 μl of PBS containing 2% micro bead was mixed with 5 μl of sample buffer (pH 6.8; 60 mM Tris-HCl, 25% glycerol, 2% SDS, 14.4 mM 2-mercaptoethanol, 0.1% bromophenol blue, H2O), followed by heating at 90° C. for 10 minutes. 15 μl of the sample was placed on each well of polyacrylamide gel. 200 V of voltage was applied thereto at room temperature for one hour to migrate sample, followed by dipping the gel in the staining solution (0.5% coomassie blue, 45% methanol, 10% acetic acid solution) at room temperature for 30 minutes. Upon completion of staining, the gel was transferred into the destaining solution (10% methanol, 10% acetic acid solution), followed by stirring at room temperature for 3 hours. The excessive staining reagent was eliminated by washing.
# goat originated IgG = experiment: as above; settings: antibody 0.1 mg/ml, bead 2 mg/ml
# Method: as §3, §4, §5
# human originated HIgG = experiment: as above; settings: antibody 0.1 mg/ml, bead 2 mg/ml
# Method: as §3, §4, §5
# rabbit originated IgG [10] = target: T1, rabbit originated IgG; experiment: as above; settings: antibody 0.1 mg/ml, bead 2 mg/ml
# Method: as §3, §4, §5
# rabbit IgG [11] = target: T2, rabbit IgG; experiment: Cy3-labeled antibody binding to glass plate surface-treated with peptide hybrid (fluorescence); set-up: purchased Sigma-Aldrich (USA); settings: fluorescence image
# Method: as §1
# MIgG2 = experiment: SPR binding capacity, antibody isotypes; set-up: species or system mouse; settings: CM-5 Au sensor chip
# Method: as §2
# MIgG3 = experiment: SPR binding capacity, antibody isotypes; set-up: species or system mouse; settings: CM-5 Au sensor chip
# Method: as §2
# MIgGA = experiment: SPR binding capacity, antibody isotypes; set-up: species or system mouse; settings: CM-5 Au sensor chip
# Method: as §2
# HIgG1 [12] = experiment: SPR binding affinity (Biacore 3000, nonlinear regression); set-up: species or system human; settings: antibody 100-1,000 nM, CM-5 chip
# Method: The values were analyzed by nonlinear regression using BIAevaluation software equipped in Biacore 3000 to draw a theoretical line graph (FIG. 4a).
# [13] = tested on: human, rabbit, mouse and goat antibodies; experiment: SPR binding capacity on peptide-hybrid-treated CM-5 Au sensor chip, different antibodies; settings: antibody 5 μg/ml in PBS
# Method: as §2
molecule,measurement,setting,value
"CC(C)C[C@@H]1NC(=O)[C@H](Cc2c[nH]cn2)NC(=O)[C@H](Cc2c[nH]c3ccccc23)NC(=O)[C@H](C)NC(=O)[C@@H](NC(=O)[C@H](CC(=O)O)NC(=O)[C@H](CC(=O)O)NC(=O)[C@H](CCC(=O)O)NC(=O)CCOCCOCCN)CSSC[C@@H](C(=O)N[C@H](C(N)=O)[C@@H](C)O)NC(=O)[C@H](Cc2c[nH]c3ccccc23)NC(=O)[C@H](C(C)C)NC(=O)[C@H](CC(C)C)NC(=O)[C@H](CCC(=O)O)NC(=O)CNC1=O [formula 1a, H2N(CH2CH2O)2CH2CH2COEDDC*AWHLGELVWC*T-CONH2]",binding of goat originated antibodies to glass plate,goat IgG,not bound well
same,antibody binding capacity of surface-treated glass plate after storage,[1],maintain its antibody binding capacity
same,antibody binding capacity of the peptide-treated surface after washing with 20 mM NaOH,[2],without reducing the antibody binding capacity; also recorded: antibody binding capacity was not reduced
same,binding of human originated antibodies to glass plate,[3],bound very well
same,"binding to mouse originated antibodies (SPR), in words",[4],not successfully immobilized; also recorded: only at minimum level
same,"binding to goat originated antibody (SPR), in words",goat originated antibody,not successfully immobilized; also recorded: only at minimum level
same,"binding to rabbit originated antibodies (SPR), in words",rabbit originated IgG [5],immobilized effectively
same,"SPR binding level, rabbit originated IgG",rabbit originated IgG [5]; saturated level,12000 RU
same,"binding to human originated antibodies (SPR), in words",[6],immobilized effectively
same,"SPR binding level, human originated IgG",[6]; saturated level,12000 RU
same,"binding to BSA (SPR), in words",BSA,not bound
same,"binding to HIgG1 (SPR), in words",HIgG1 [7],particularly strongly bound; also recorded: effectively bound
same,"binding to HIgG3 (SPR), in words",HIgG3,barely bound
same,"binding to HIgG2 (SPR), in words",HIgG2,particularly strongly bound; also recorded: effectively bound
same,antigen-antibody binding capacity relative to chip with chemically immobilized anti-CRP antibody,CRP,approximately 1.6 fold
same,Kd,rabbit IgG [8],305 nM
same,"binding to MIgG1 (SPR), in words",MIgG1,hardly bound
same,binding of mouse originated antibodies to glass plate,[9],not bound well
same,"binding to mouse originated IgG, magnetic micro bead",mouse originated IgG,not
same,"binding to goat originated IgG, magnetic micro bead",goat originated IgG,not
same,"binding to human originated HIgG, magnetic micro bead",human originated HIgG,effectively bound
same,"binding to rabbit originated IgG, magnetic micro bead",rabbit originated IgG [10],effectively bound
same,binding of rabbit originated antibodies to glass plate,rabbit IgG [11],bound very well
same,"binding to MIgG2 (SPR), in words",MIgG2,hardly bound
same,"binding to MIgG3 (SPR), in words",MIgG3,to some degree
same,"binding to MIgGA (SPR), in words",MIgGA,hardly bound
same,Kd,HIgG1 [12],85 nM
H2N(CH2CH2O)nCH2CH2COXDC*AWHLGELVWC*T-CONH2 [formula 1],binding to the different types of antibodies (SPR),[13],strongly attached
same,"binding to rabbit originated antibodies (SPR), in words",rabbit originated IgG [5],strongly bound
same,"binding to human originated antibodies (SPR), in words",[6],strongly bound
